This passage reports IC50 results from US8309718B2, “4-pyrazolyl-N-arylpyrimidin-2-amines and 4-pyrazolyl-N-heteroarylpyrimidin-2-amines as janus kinase inhibitors” (Incyte Corporation, priority 2007, dated 2012).

Molecules are shown by their SMILES. Some results are limits rather than exact numbers.

T1 sequence (O60674 828-1132): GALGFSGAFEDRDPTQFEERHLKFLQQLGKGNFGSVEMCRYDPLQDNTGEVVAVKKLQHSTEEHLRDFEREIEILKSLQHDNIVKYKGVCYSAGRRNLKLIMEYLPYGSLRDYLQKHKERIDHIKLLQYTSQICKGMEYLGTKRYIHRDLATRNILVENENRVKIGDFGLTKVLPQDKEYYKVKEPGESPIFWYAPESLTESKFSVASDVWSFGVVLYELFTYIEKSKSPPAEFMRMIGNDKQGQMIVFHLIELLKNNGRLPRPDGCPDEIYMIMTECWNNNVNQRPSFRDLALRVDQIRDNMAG

This assay has as its target T1, human JAK2 (Homo sapiens, UniProt O60674).
T1 construct: JAK2 (a.a. 828-1132); His tag (N); made in house; host or cells: insect cells (baculovirus)
As to the kind of experiment: In vitro JAK kinase assay (HTRF, phosphorylation of biotinylated peptide). It is filed as biochemical. To be noted: catalytic domain a.a. 828-1132, 30 μM ATP, 500 nM peptide, room temperature 1 hr; read-out: JAK-2 IC50. In outline:
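IC50 from HTRF detection (Eu-Py20 antibody, SA-APC) of biotinylated-peptide phosphorylation (500 nM), run 1 h at RT. Enzyme: N-His human JAK2 kinase domain a.a. 828-1132 from insect cells; ATP 30 μM; buffer 50 mM Tris pH 7.8 with NaCl, DTT, BSA.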
(In TR-FRET formats the signal depends on donor and acceptor labels being close together.)
As usually defined, the IC50 is the concentration needed to halve the response being measured. In the case of `N#CCC(C1CCCC1)n1cc(-c2ccnc(Nc3ccc(OCCN4CCCC4)cc3)n2)cn1` (racemic) [Example 306, 3-cyclopentyl-3-[4-(2-{[4-(2-pyrrolidin-1-ylethoxy)phenyl]amino}pyrimidin-4-yl)-1H-pyrazol-1-yl]propanenitrile], the IC50 is below 100 nM.

In the case of `N#CCC(C1CCOCC1)n1cc(-c2ccnc(Nc3ccc(N4CCOCC4)cc3)n2)cn1` (racemic) [Example 308, 3-(4-{2-[(4-morpholin-4-ylphenyl)amino]pyrimidin-4-yl}-1H-pyrazol-1-yl)-3-(tetrahydro-2H-pyran-4-yl)propanenitrile], the IC50 was below 100 nM.

As for `N#CCC(C1CCOCC1)n1cc(-c2ccnc(Nc3ccc(C(=O)N4CCCC4)cc3)n2)cn1` (racemic) [Example 310, 3-[4-(2-{[4-(pyrrolidin-1-ylcarbonyl)phenyl]amino}pyrimidin-4-yl)-1H-pyrazol-1-yl]-3-(tetrahydro-2H-pyran-4-yl)propanenitrile], the IC50 was below 100 nM.

Consider `N#CCC(C1CCOCC1)n1cc(-c2ccnc(Nc3ccc(C(=O)N4CCOCC4)cc3)n2)cn1` (racemic) [Example 311, 3-[4-(2-{[4-(morpholin-4-ylcarbonyl)phenyl]amino}pyrimidin-4-yl)-1H-pyrazol-1-yl]-3-(tetrahydro-2H-pyran-4-yl)propanenitrile], for which the IC50 was below 100 nM.

Take `N#CCC(C1CCOCC1)n1cc(-c2ccnc(Nc3ccc(C(=O)N4CCC(O)CC4)cc3)n2)cn1` (racemic) [Example 312, 3-{4-[2-({4-[(4-hydroxypiperidin-1-yl)carbonyl]phenyl}amino)pyrimidin-4-yl]-1H-pyrazol-1-yl}-3-(tetrahydro-2H-pyran-4-yl)propanenitrile]: the IC50 was below 100 nM.

As for `COC1CCN(C(=O)c2ccc(Nc3nccc(-c4cnn(C(CC#N)C5CCOCC5)c4)n3)cc2)CC1` (racemic) [Example 313, 3-{4-[2-({4-[(4-methoxypiperidin-1-yl)carbonyl]phenyl}amino)pyrimidin-4-yl]-1H-pyrazol-1-yl}-3-(tetrahydro-2H-pyran-4-yl)propanenitrile], the IC50 was below 100 nM.

In the case of `N#CCC(C1CCOCC1)n1cc(-c2ccnc(Nc3ccc(C(=O)N4CCC(C#N)CC4)cc3)n2)cn1` (racemic) [Example 314, 1-{4-[(4-{1-[2-cyano-1-(tetrahydro-2H-pyran-4-yl)ethyl]-1H-pyrazol-4-yl}pyrimidin-2-yl)amino]benzoyl}piperidine-4-carbonitrile], the IC50 is below 100 nM.

As to `N#CCC(C1CC1)n1cc(-c2ccnc(Nc3ccc(C(=O)N4CCC(C#N)CC4)cc3)n2)cn1` (racemic) [Example 318, 1-[4-({4-[1-(2-cyano-1-cyclopropylethyl)-1H-pyrazol-4-yl]pyrimidin-2-yl}amino)benzoyl]piperidine-4-carbonitrile], the IC50 is below 100 nM.

For `CCS(=O)(=O)N1CC(CC#N)(n2cc(-c3ccnc(Nc4ccc(C(=O)N5CCC(C#N)CC5)cc4)n3)cn2)C1` (racemic) [Example 319, 1-{4-[(4-{1-[3-(cyanomethyl)-1-(ethylsulfonyl)azetidin-3-yl]-1H-pyrazol-4-yl}pyrimidin-2-yl)amino]benzoyl}piperidine-4-carbonitrile], the IC50 is below 100 nM.

Take `COc1cnc(Nc2cccc(-c3cnco3)c2)nc1-c1cnn(C(CC#N)C2CC2)c1` (racemic) [Example 320, 3-cyclopropyl-3-[4-(5-methoxy-2-{[3-(1,3-oxazol-5-yl)phenyl]amino}pyrimidin-4-yl)-1H-pyrazol-1-yl]propanenitrile]: the IC50 is below 100 nM.

As for `COc1cnc(Nc2cccc([N+](=O)[O-])c2)nc1-c1cnn(C(CC#N)C2CC2)c1` (racemic) [Example 321, 3-cyclopropyl-3-(4-{5-methoxy-2-[(3-nitrophenyl)amino]pyrimidin-4-yl}-1H-pyrazol-1-yl)propanenitrile], the IC50 is below 100 nM.

Turning to `COc1cnc(Nc2cccc(C(=O)NC3CCOCC3)c2)nc1-c1cnn(C(CC#N)C2CC2)c1` (racemic) [Example 323, 3-({4-[1-(2-cyano-1-cyclopropylethyl)-1H-pyrazol-4-yl]-5-methoxypyrimidin-2-yl}amino)-N-(tetrahydro-2H-pyran-4-yl)benzamide], the IC50 was below 100 nM.

On to `COc1cnc(Nc2cccc(C(=O)N3CCCC3)c2)nc1-c1cnn(C(CC#N)C2CC2)c1` (racemic) [Example 324, 3-cyclopropyl-3-[4-(5-methoxy-2-{[3-(pyrrolidin-1-ylcarbonyl)phenyl]amino}pyrimidin-4-yl)-1H-pyrazol-1-yl]propanenitrile], for which the IC50 is below 100 nM.

Regarding `COc1cnc(Nc2cccc(C(=O)N3CCOCC3)c2)nc1-c1cnn(C(CC#N)C2CC2)c1` (racemic) [Example 328, 3-cyclopropyl-3-[4-(5-methoxy-2-{[3-(morpholin-4-ylcarbonyl)phenyl]amino}pyrimidin-4-yl)-1H-pyrazol-1-yl]propanenitrile], the IC50 is below 100 nM.

`COc1cnc(Nc2cccc(C(=O)N3CCC(O)CC3)c2)nc1-c1cnn(C(CC#N)C2CC2)c1` (racemic) [Example 329, 3-cyclopropyl-3-{4-[2-({3-[(4-hydroxypiperidin-1-yl)carbonyl]phenyl}amino)-5-methoxypyrimidin-4-yl]-1H-pyrazol-1-yl}propanenitrile]: the IC50 was below 100 nM.

For `COc1cnc(Nc2cccc(C(=O)N3CCC(OC)CC3)c2)nc1-c1cnn(C(CC#N)C2CC2)c1` (racemic) [Example 330, 3-cyclopropyl-3-{4-[5-methoxy-2-({3-[(4-methoxypiperidin-1-yl)carbonyl]phenyl}amino)pyrimidin-4-yl]-1H-pyrazol-1-yl}propanenitrile], the IC50 is below 100 nM.

In the case of `COc1cnc(Nc2cccc(C(=O)N3CCC(C#N)CC3)c2)nc1-c1cnn(C(CC#N)C2CC2)c1` (racemic) [Example 331, 1-[3-({4-[1-(2-cyano-1-cyclopropylethyl)-1H-pyrazol-4-yl]-5-methoxypyrimidin-2-yl}amino)benzoyl]piperidine-4-carbonitrile], the IC50 is below 100 nM.

As to `COc1cnc(Nc2cccc(C(=O)N3[C@@H]4CC[C@H]3C[C@@H](O)C4)c2)nc1-c1cnn(C(CC#N)C2CC2)c1` (mixture of isomers) [Example 332, 3-cyclopropyl-3-(4-{2-[(3-{[(3-endo)-3-hydroxy-8-azabicyclo[3.2.1]oct-8-yl]carbonyl}phenyl)amino]-5-methoxypyrimidin-4-yl}-1H-pyrazol-1-yl)propanenitrile], the 50% inhibitory concentration (IC50) was below 100 nM.

With `COc1cnc(Nc2cccc(C(=O)NCc3cc(C)on3)c2)nc1-c1cnn(C(CC#N)C2CC2)c1` (racemic) [Example 333, 3-({4-[1-(2-cyano-1-cyclopropylethyl)-1H-pyrazol-4-yl]-5-methoxypyrimidin-2-yl}amino)-N-[(5-methylisoxazol-3-yl)methyl]benzamide], the IC50 is below 100 nM.

With `COc1cnc(Nc2cccc(C(=O)N3CCC3)c2)nc1-c1cnn(C(CC#N)C2CC2)c1` (racemic) [Example 334, 3-[4-(2-{[3-(azetidin-1-ylcarbonyl)phenyl]amino}-5-methoxypyrimidin-4-yl)-1H-pyrazol-1-yl]-3-cyclopropylpropanenitrile], the IC50 was below 100 nM.

As to `COc1cnc(Nc2cccc(N3CCCS3(=O)=O)c2)nc1-c1cnn(C(CC#N)C2CC2)c1` (racemic) [Example 346, 3-cyclopropyl-3-[4-(2-{[3-(1,1-dioxidoisothiazolidin-2-yl)phenyl]amino}-5-methoxypyrimidin-4-yl)-1H-pyrazol-1-yl]propanenitrile], the IC50 is below 100 nM.

`COc1cnc(Nc2cccnc2)nc1-c1cnn(C(CC#N)CC2CCN(C(=O)c3ccc(F)cc3F)CC2)c1` (racemic) [Example 347, 4-[1-(2,4-difluorobenzoyl)piperidin-4-yl]-3-{4-[5-methoxy-2-(pyridin-3-ylamino)pyrimidin-4-yl]-1H-pyrazol-1-yl}butanenitrile]: the IC50 was below 100 nM.

With `Cc1cc(OC2CCC(CC#N)(n3cc(-c4ccnc(Nc5ccc(N6CCOCC6)cc5)n4)cn3)CC2)no1` (single isomer, unassigned) [Example 212, 2-(4-(5-methylisoxazol-3-yloxy)-1-(4-(2-(4-morpholinophenylamino)pyrimidin-4-yl)-1H-pyrazol-1-yl)cyclohexyl)acetonitrile], the IC50 was below 100 nM.

As to `CC1(C)NC(=O)O[C@]12CCN(C(=O)c1ccc(Nc3nccc(-c4cnn(C(CC#N)C5CCCC5)c4)n3)cc1)C2` (single isomer, unassigned) [Example 219, 3-cyclopentyl-3-(4-(2-(4-((S*)-4,4-dimethyl-2-oxo-1-oxa-3,7-diazaspiro[4.4]nonane-7-carbonyl)phenylamino)pyrimidin-4-yl)-1H-pyrazol-1-yl)propanenitrile], the IC50 was below 100 nM.

Turning to `Cc1cc(OC2CCC(CC#N)(n3cc(-c4ccnc(Nc5ccc(N6CCOCC6=O)cc5)n4)cn3)CC2)no1` (single isomer, unassigned) [Example 244, 2-(4-(5-methylisoxazol-3-yloxy)-1-(4-(2-(4-(3-oxomorpholino)phenylamino)pyrimidin-4-yl)-1H-pyrazol-1-yl)cyclohexyl)acetonitrile], the IC50 is below 100 nM.

For `Cc1cc(OC2CCC(CC#N)(n3cc(-c4ccnc(Nc5ccc(N6CCCCC6=O)cc5)n4)cn3)CC2)no1` (single isomer, unassigned) [Example 245, 2-(4-(5-methylisoxazol-3-yloxy)-1-(4-(2-(4-(2-oxopiperidin-1-yl)phenylamino)pyrimidin-4-yl)-1H-pyrazol-1-yl)cyclohexyl)acetonitrile], the IC50 was below 100 nM.

For the compound `Cc1cc(OC2CCC(CC#N)(n3cc(-c4ccnc(Nc5ccc(-n6cccn6)cc5)n4)cn3)CC2)no1` (single isomer, unassigned) [Example 246, 2-(1-(4-(2-(4-(1H-pyrazol-1-yl)phenylamino)pyrimidin-4-yl)-1H-pyrazol-1-yl)-4-(5-methylisoxazol-3-yloxy)cyclohexyl)acetonitrile], the IC50 was below 100 nM.
